Test results published in US20020035061A1, “COMPOSITIONS AND METHODS FOR TREATING INFECTIONS USING CATIONIC PEPTIDES ALONE OR IN COMBINATION WITH ANTIBIOTICS” (priority 1996, published 2002).
Read-outs that look alike come from different tables or passages of the source.

Legend:
Format in all cases: cell-based
S. aureus = test system: S. aureus
S. epidermidis = test system: S. epidermidis
E. cloacae = test system: E. cloacae
E. faecalis = test system: E. faecalis
K. pneumoniae = test system: K. pneumoniae
E. coli = test system: E. coli
S. marcescens = test system: S. marcescens
S. maltophilia = test system: S. maltophilia
P. aeruginosa = test system: P. aeruginosa
A. calcoaceticus = test system: A. calcoaceticus

| Sequence | MIC (S. aureus; S. aureus SA093) | MIC (S. epidermidis; S. epidermidis SE010) | MIC (E. cloacae; E. cloacae ECL007) | MIC (E. faecalis; E. faecalis EFS001) | MIC (K. pneumoniae; K. pneumoniae KP001) | MIC (E. coli; E. coli ECO005) | MIC (S. marcescens; S. marcescens SMS003) | MIC (S. maltophilia; S. maltophilia SMA002) | MIC (P. aeruginosa; P. aeruginosa PA004) | MIC (A. calcoaceticus; A. calcoaceticus AC002) | MIC (S. aureus; S. aureus strain SA093) | MIC (S. epidermidis; S. epidermidis strain SE010) | MIC (E. cloacae; E. cloacae strain ECL007) | MIC (E. faecalis; E. faecalis strain EFS008) | MIC (K. pneumoniae; K. pneumoniae strain KP001) | MIC (E. coli; E. coli strain ECO005) | MIC (S. marcescens; S. marcescens strain SMS003) | MIC (S. maltophilia; S. maltophilia strain SMA002) | MIC (P. aeruginosa; P. aeruginosa strain PA004) | MIC (A. calcoaceticus; A. calcoaceticus strain AC002) | further results |
| --- | --- | --- | --- | --- | --- | --- | --- | --- | --- | --- | --- | --- | --- | --- | --- | --- | --- | --- | --- | --- | --- |
| ILRWPWWPWRAK [MBI 11H11CN] | 1 mg/L | 4 mg/L | >128 mg/L | 2 mg/L | 16 mg/L | 16 mg/L | >128 mg/L | 64 mg/L | >128 mg/L | 4 mg/L |  |  |  |  |  |  |  |  |  |  | MIC (S. aureus; S. aureus SA014): 4 mg/L; MIC (E. faecalis; E. faecalis EFS008): 8 mg/L |
| ILRWPWWPWRRA [MBI 11H12CN] | 1 mg/L | 4 mg/L | >128 mg/L | 2 mg/L | 16 mg/L | 16 mg/L | >128 mg/L | 64 mg/L | >128 mg/L | 4 mg/L |  |  |  |  |  |  |  |  |  |  | MIC (S. aureus; S. aureus SA014): 2 mg/L; MIC (E. faecalis; E. faecalis EFS008): 8 mg/L |
| ILRWPWWPWRRKDMILKKAGS [MBI 11B18CN] |  |  |  |  |  |  |  |  |  |  | 2 mg/L | 4 mg/L | >128 mg/L | 4 mg/L | 32 mg/L | 32 mg/L | >128 mg/L | 64 mg/L | >128 mg/L | 2 mg/L |  |
| ILRWPWWPWRRKMILKKAGS [MBI 11B17CN] |  |  |  |  |  |  |  |  |  |  | 2 mg/L | 4 mg/L | >128 mg/L | 4 mg/L | 16 mg/L | 8 mg/L | >128 mg/L | 32 mg/L | >128 mg/L | 2 mg/L |  |
| ILRWPWWPWWPWRRK [MBI 11A9CN] |  |  |  |  |  |  |  |  |  |  | 2 mg/L | 4 mg/L | 128 mg/L | 8 mg/L | 32 mg/L | 32 mg/L | >128 mg/L | 32 mg/L | 128 mg/L | 8 mg/L | MIC (S. aureus; S. aureus strain SA014): 4 mg/L; MIC (E. faecalis; E. faecalis strain EFS001): 2 mg/L |
| ILRWWVWWVWWRRK [MBI 11F6CN] | 8 mg/L | 8 mg/L | 64 mg/L | 16 mg/L | 32 mg/L | 32 mg/L | >128 mg/L | 64 mg/L | 128 mg/L | 16 mg/L |  |  |  |  |  |  |  |  |  |  | MIC (S. aureus; S. aureus SA014): 16 mg/L; MIC (E. faecalis; E. faecalis EFS008): 16 mg/L |
| ILRYVYYVYRRK [MBI 11A8CN] |  |  |  |  |  |  |  |  |  |  | 1 mg/L | 16 mg/L | >128 mg/L |  | 128 mg/L | 32 mg/L | >128 mg/L | 32 mg/L | >128 mg/L | 8 mg/L | MIC (E. faecalis; E. faecalis strain EFS001): 4 mg/L |
| KRRWPWWPWKKLI [MBI 11CNR] | 4 mg/L | 4 mg/L | >128 mg/L | 4 mg/L | 4 mg/L | 8 mg/L | 128 mg/L | 32 mg/L | 32 mg/L | 4 mg/L |  |  |  |  |  |  |  |  |  |  |  |
| KRRWPWWPWRLI [MBI 11B7CNR] |  |  |  |  |  |  |  |  |  |  | 2 mg/L | 4 mg/L | 64 mg/L |  | 8 mg/L | 8 mg/L | >128 mg/L | 32 mg/L | 64 mg/L | 4 mg/L | MIC (E. faecalis; E. faecalis strain EFS001): 4 mg/L |
| KRRWVWWVWRLI [MBI 11F4CNR] |  |  |  |  |  |  |  |  |  |  | 8 mg/L | 8 mg/L | 32 mg/L | 32 mg/L | 32 mg/L | 32 mg/L | >128 mg/L | 32 mg/L | 64 mg/L | 16 mg/L |  |
